One series addresses T1, mOct1 (Mus musculus, UniProt O08966).
T1 construct: expressed in transfected cells; host or cells: HEK293
T1 sequence (O08966 1-556): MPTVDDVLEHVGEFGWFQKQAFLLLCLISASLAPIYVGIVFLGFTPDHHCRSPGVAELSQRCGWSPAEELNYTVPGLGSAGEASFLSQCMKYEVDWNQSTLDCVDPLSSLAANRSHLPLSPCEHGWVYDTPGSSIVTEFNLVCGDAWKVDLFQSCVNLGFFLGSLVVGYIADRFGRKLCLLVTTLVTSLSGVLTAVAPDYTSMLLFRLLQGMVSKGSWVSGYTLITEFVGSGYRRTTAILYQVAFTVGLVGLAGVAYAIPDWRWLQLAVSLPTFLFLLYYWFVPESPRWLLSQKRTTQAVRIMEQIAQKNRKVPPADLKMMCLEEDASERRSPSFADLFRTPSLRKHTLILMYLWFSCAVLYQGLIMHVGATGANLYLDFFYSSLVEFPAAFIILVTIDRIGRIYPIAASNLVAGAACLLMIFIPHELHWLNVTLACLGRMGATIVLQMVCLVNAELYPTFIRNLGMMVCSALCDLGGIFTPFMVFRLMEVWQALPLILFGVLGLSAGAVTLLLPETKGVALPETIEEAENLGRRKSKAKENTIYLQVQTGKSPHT
Put plainly: Two-point inhibition of mOct1-mediated MPP uptake in transfected HEK293 cells. The settings on record: 1 and 10 μM; MPP 10 μM, 1 min. Format: in vitro ADME. As for the experimental part:
(§1) Well-characterized mOct1-, mOct2-, mOat1-, mOat2-, mOat3-, mMate1-, hOAT1-, hOAT3-, hOAT4-, hMRP2-, mMdr1a- and mMdr1b-transfected HEK293 cells and the respective vector-transfected control HEK293 cells were used.[42],[51],[52] All HEK293 cells (transporter-transfected and vector-transfected) were cultured in DMEM (Sigma, high glucose, 10% FBS, 1% penicillin (10,000 Units/mL)/streptomycin (10 mg/mL)) at 37°C under 5% CO2 in humidified atmosphere. The cells were routinely checked for the absence of mycoplasma infection. For the preparation of HEK293 cell monolayers, 24-well plates were pretreated with a poly-D-lysine hydrobromide solution (0.1 mg/mL). […]
(§2) For the uptake assay, the growth medium was aspirated, and each well was rinsed three times with 0.5 mL of incubation buffer (HBSS supplemented with 20 mM HEPES, pH 7.4) and incubated for 20 min at 37 °C. […] Cells were solubilized with 0.6 mL of 1N NaOH overnight and transferred into scintillation vials. ^3H and ^14C contents were measured after the addition of 2.5 mL of scintillator in a liquid scintillation counter.
(§3) The cellular protein amount was determined in parallel for each cell line (vector- and transporter-transfected) from six wells in a different 24-well reference plate using the Bradford method. […]
(§4) The inhibitory effect (I(%)) was calculated according to the formula: [drawing 5] […]

Another series has as its target T2, hMRP2 (Homo sapiens, UniProt Q92887).
T2 construct: expressed in transfected cells; host or cells: HEK293
Put plainly: Two-point inhibition of hMRP2-mediated efflux of CDCF in transfected HEK293 cells. Format: in vitro ADME. To be noted: 1 and 10 μM; CDCF-DA 5 μM, efflux 10 min. The procedure:
as §1, with “mg/mL). Each well was coated with 0.5 mL of poly-D-lysine solution and incubated for at least 15 min.” for “mg/mL).”
After preloading, the incubation buffer was removed, cells were washed twice with cold HBSS incubation buffer, and for the efflux, 0.2 mL of incubation buffer was added to each well containing the nonlabeled CHD and CDCHD or reference inhibitor (Table S1) and incubated at 37 °C for designated time intervals. […] Samples were diluted with incubation buffer, and fluorescence was measured in a 96-well plate (Sarstedt, flat bottom) at an extinction of 490 nm and emission of 535 nm. […]
The inhibitory effect I (%) and the efflux ratio was calculated in the same way described for the uptake assays.

Details of series [1]: method as in PMID 38047701. The settings on record: PK samples; cited from earlier work.
In another series the target is T3, hOAT3 (Homo sapiens, UniProt Q8TCC7).
T3 construct: expressed in transfected cells; host or cells: HEK293
T3 sequence (Q8TCC7 1-542): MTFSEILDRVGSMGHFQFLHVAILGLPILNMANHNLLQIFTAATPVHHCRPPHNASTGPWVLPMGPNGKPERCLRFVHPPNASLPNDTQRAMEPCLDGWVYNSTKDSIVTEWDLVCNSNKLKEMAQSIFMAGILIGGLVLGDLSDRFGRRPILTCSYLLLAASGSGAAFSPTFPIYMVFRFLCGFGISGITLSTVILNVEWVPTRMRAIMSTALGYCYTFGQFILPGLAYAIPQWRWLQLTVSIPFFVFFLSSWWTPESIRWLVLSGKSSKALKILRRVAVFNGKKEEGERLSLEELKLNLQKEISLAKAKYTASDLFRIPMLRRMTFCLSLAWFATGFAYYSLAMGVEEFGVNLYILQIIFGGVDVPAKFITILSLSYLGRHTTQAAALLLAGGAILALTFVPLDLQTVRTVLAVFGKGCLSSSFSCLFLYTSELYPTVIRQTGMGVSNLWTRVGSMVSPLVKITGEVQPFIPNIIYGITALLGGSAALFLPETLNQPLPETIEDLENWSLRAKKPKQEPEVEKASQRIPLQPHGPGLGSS
Description: Two-point inhibition of hOAT3-mediated ES uptake in transfected HEK293 cells. Format: in vitro ADME. To be noted: ES 1 μM, 1 min. The procedure:
as §1, §2, §3, §4

SMILES strings stand for the structures.

T2 sequence (Q92887 whole entry): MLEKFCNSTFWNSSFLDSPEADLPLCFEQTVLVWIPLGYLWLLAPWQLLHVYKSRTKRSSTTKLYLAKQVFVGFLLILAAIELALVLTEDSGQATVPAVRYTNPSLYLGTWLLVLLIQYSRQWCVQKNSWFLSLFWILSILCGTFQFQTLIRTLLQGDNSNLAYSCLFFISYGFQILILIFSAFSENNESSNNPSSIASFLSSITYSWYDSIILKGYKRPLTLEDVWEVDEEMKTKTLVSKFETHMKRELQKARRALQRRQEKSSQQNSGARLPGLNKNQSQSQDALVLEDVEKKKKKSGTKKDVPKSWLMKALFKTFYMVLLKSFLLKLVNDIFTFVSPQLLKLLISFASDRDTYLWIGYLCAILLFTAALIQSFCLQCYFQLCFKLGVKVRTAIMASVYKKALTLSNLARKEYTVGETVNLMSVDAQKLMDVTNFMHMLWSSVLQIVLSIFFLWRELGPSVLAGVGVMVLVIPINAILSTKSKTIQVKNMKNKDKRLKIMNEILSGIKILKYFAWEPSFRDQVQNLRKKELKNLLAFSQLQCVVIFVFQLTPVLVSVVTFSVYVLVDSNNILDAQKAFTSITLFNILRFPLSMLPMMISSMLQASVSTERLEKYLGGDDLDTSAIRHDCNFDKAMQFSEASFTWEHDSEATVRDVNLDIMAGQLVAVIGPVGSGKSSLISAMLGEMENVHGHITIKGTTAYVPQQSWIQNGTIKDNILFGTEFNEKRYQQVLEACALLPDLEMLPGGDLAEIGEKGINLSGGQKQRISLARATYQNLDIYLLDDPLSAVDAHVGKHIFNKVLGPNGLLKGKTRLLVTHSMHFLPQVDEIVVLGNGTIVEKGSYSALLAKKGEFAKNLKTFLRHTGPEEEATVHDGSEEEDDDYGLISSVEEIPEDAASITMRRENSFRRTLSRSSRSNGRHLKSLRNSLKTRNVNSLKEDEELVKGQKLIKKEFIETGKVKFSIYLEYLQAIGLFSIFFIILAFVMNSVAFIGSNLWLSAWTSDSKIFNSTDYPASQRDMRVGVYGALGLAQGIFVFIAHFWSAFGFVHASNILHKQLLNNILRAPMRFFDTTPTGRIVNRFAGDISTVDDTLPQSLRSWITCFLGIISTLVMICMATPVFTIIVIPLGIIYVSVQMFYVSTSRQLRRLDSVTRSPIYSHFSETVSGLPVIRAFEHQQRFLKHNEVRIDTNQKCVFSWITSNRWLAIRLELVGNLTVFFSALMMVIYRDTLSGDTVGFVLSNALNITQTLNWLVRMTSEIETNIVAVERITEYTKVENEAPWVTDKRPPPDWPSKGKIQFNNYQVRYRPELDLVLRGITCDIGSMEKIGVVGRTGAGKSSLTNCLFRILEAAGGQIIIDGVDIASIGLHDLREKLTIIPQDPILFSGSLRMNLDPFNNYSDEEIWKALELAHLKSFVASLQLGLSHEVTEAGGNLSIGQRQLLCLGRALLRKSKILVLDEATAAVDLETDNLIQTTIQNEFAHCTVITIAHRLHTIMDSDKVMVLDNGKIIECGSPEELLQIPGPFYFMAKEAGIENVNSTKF

`Cc1ccc2c(C)c3c(c(O)c2c1O)C(=O)[C@@]1(O)C(=O)C(C(N)=O)=C(O)[C@@H](N)[C@H]1C3` [CDCHD, amidochelocardin]: the “inhibitory effect on mOct1 (in words)” value against mOct1 is reported as “slight inverse inhibitory effect”. Also, at hMRP2, the “inhibitory effect on hMRP2 (in words)” value is listed as “slight inhibitory effect”. Moreover, the “irreversible toxicity in histopathological analysis of kidneys and livers (in words)” value in series [1] is on record as “has not been observed”. The “inhibition of hOAT3 (in words)” value against hOAT3 (1 and 10 μM) is given as “only marginally”.

With `CC(=O)C1=C(O)[C@@H](N)[C@H]2Cc3c(c(O)c4c(O)c(C)ccc4c3C)C(=O)[C@@]2(O)C1=O` [CHD, chelocardin], the “inhibitory effect on mOct1 (in words)” value at mOct1 is reported as “No inhibitory effect”. At hMRP2, the “inhibitory effect on hMRP2 (in words)” value is recorded as “slight inhibitory effect”. The “irreversible toxicity in histopathological analysis of kidneys and livers (in words)” value in series [1] is “has not been observed”. Moreover, the inhibition at 10 µM on hOAT3 (HEK293, at 10 μM, read-out: inhibitory effect on hOAT3) was around 75%.

(Values after paper PMC11249637, “Interaction of the Atypical Tetracyclines Chelocardin and Amidochelocardin with Renal Drug Transporters” (ACS Pharmacology & Translational Science, 2024).)
